Reference: patent publication US20240217957A1, “HETEROCYCLIC COMPOUND AND USE THEREOF” (TAKEDA PHARMACEUTICAL COMPANY LIMITED, priority 2022, published 2024)

The compounds below were run against T1, human OX2 receptor (Homo sapiens, UniProt O43614) (assay: Measurement of orexin type 2 receptor agonist activity (calcium fluorescence, Fluo-4 AM, FDSS)). Conditions: compound at 3 μM; CHO cells forcibly expressing human OX2 receptor; DMSO = 0%, 10 nM orexin A (human) = 100%.
T1 construct: expressed in transfected cells
T1 sequence (O43614 1-444): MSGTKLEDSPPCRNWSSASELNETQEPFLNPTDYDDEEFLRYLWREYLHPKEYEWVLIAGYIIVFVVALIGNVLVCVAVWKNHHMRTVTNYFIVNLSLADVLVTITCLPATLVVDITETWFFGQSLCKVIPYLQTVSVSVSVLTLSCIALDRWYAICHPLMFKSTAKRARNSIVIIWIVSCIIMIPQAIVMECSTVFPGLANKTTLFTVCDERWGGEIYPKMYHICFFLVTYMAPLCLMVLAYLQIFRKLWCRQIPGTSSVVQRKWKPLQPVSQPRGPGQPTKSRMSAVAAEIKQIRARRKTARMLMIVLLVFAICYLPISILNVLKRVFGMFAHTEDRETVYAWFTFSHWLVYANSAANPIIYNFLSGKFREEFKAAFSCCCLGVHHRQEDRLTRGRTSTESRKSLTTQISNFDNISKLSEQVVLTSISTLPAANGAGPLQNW
Type: cell-based
How it was run: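 Agonist response is expressed as % of the fluorescence change given by 10 nM human orexin A, with DMSO as 0%, read over 1 min 40 s on FDSS after compound addition. Cells: stable human OX2 (1-444) CHO-K1 clones, dye-loaded with Fluo-4 AM plus probenecid in HEPES-buffered HBSS with 0.1% BSA.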

SMILES | OX2R agonist activity (3 μM, %)
Cc1cnc([C@@H]2CC(N3C[C@@H](NS(C)(=O)=O)C(F)(F)C3)=NO2)c(-c2c(F)cc(F)cc2F)c1 [Example 11, N-[(3R)-4,4-difluoro-1-{(5S)-5-[5-methyl-3-(2,4,6-trifluorophenyl)pyridin-2-yl]-4,5-dihydro-1,2-oxazol-3-yl}pyrrolidin-3-yl]methanesulfonamide] | 96%
CS(=O)(=O)N[C@@H]1CN(C2=NOC(c3c(F)ccc(F)c3-c3c(F)cccc3F)C2)C[C@@H]1F (stereo partly drawn) [Example 159, N-{(3R,4S)-4-fluoro-1-[5-(2′,3,6,6′-tetrafluoro[1,1′-biphenyl]-2-yl)-4,5-dihydro-1,2-oxazol-3-yl]pyrrolidin-3-yl}methanesulfonamide] | 99%
CS(=O)(=O)N[C@@H]1CN(C2=NOC(c3c(F)cccc3-c3c(F)cccc3F)C2)CC1(F)F (stereo partly drawn) [Example 160, N-{(3R)-4,4-difluoro-1-[5-(2′,3,6′-trifluoro[1,1′-biphenyl]-2-yl)-4,5-dihydro-1,2-oxazol-3-yl]pyrrolidin-3-yl}methanesulfonamide] | 104%
Cc1ccc(C2(C)CC(N3C[C@@H](NS(C)(=O)=O)C(F)(F)C3)=NO2)c(-c2ncc(F)cc2F)c1 (stereo partly drawn) [Example 161, N-[(3R)-1-{5-[2-(3,5-difluoropyridin-2-yl)-4-methylphenyl]-5-methyl-4,5-dihydro-1,2-oxazol-3-yl}-4,4-difluoropyrrolidin-3-yl]methanesulfonamide] | 103%
CS(=O)(=O)N[C@@H]1CN(C2=NOC(c3c(F)cc(F)c(F)c3-c3c(F)cccc3F)C2)C[C@@H]1F (stereo partly drawn) [Example 166, N-{(3R,4S)-4-fluoro-1-[5-(2′,3,5,6,6′-pentafluoro[1,1′-biphenyl]-2-yl)-4,5-dihydro-1,2-oxazol-3-yl]pyrrolidin-3-yl}methanesulfonamide] | 102%
O=S(=O)(CF)N[C@@H]1CN(C2=NOC(c3c(F)cccc3-c3c(F)cccc3F)C2)CC1(F)F (stereo partly drawn) [Example 170, N-{(3R)-4,4-difluoro-1-[5-(2′,3,6′-trifluoro[1,1′-biphenyl]-2-yl)-4,5-dihydro-1,2-oxazol-3-yl]pyrrolidin-3-yl}-1-fluoromethanesulfonamide] | 102%
CS(=O)(=O)N[C@@H]1CN(C2=NOC(c3c(F)cc(Cl)cc3-c3ncc(F)cc3F)C2)CC1(F)F (stereo partly drawn) [Example 171, N-[(3R)-1-{5-[4-chloro-2-(3,5-difluoropyridin-2-yl)-6-fluorophenyl]-4,5-dihydro-1,2-oxazol-3-yl}-4,4-difluoropyrrolidin-3-yl]methanesulfonamide] | 109%
CS(=O)(=O)N[C@@H]1CN(C2=NOC(c3c(F)cc(F)c(F)c3-c3c(F)cccc3F)C2)CC1(F)F (stereo partly drawn) [Example 172, N-{(3R)-4,4-difluoro-1-[5-(2′,3,5,6,6′-pentafluoro[1,1′-biphenyl]-2-yl)-4,5-dihydro-1,2-oxazol-3-yl]pyrrolidin-3-yl}methanesulfonamide] | 99%
O=S(=O)(CF)N[C@@H]1CN(C2=NOC(c3c(F)ccc(F)c3-c3c(F)cccc3F)C2)CC1(F)F (stereo partly drawn) [Example 173, N-{(3R)-4,4-difluoro-1-[5-(2′,3,6,6′-tetrafluoro[1,1′-biphenyl]-2-yl)-4,5-dihydro-1,2-oxazol-3-yl]pyrrolidin-3-yl}-1-fluoromethanesulfonamide] | 100%
O=S(=O)(CF)N[C@@H]1CN(C2=NOC(c3c(F)cc(F)c(F)c3-c3c(F)cccc3F)C2)CC1(F)F (stereo partly drawn) [Example 174, N-{(3R)-4,4-difluoro-1-[5-(2′,3,5,6,6′-pentafluoro[1,1′-biphenyl]-2-yl)-4,5-dihydro-1,2-oxazol-3-yl]pyrrolidin-3-yl}-1-fluoromethanesulfonamide] | 107%
COc1cccc(F)c1-c1cc(C)cc(F)c1C1CC(N2C[C@@H](NS(C)(=O)=O)C(F)(F)C2)=NO1 (stereo partly drawn) [Example 175, N-{(3R)-1-[5-(2′,3-difluoro-6′-methoxy-5-methyl[1,1′-biphenyl]-2-yl)-4,5-dihydro-1,2-oxazol-3-yl]-4,4-difluoropyrrolidin-3-yl}methanesulfonamide] | 112%
Cc1cc(F)c(C2CC(N3C[C@@H](NS(C)(=O)=O)C(F)(F)C3)=NO2)c(-c2ncccc2F)c1 (stereo partly drawn) [Example 176, N-[(3R)-4,4-difluoro-1-{5-[2-fluoro-6-(3-fluoropyridin-2-yl)-4-methylphenyl]-4,5-dihydro-1,2-oxazol-3-yl}pyrrolidin-3-yl]methanesulfonamide] | 109%

Results, then the compound that gave them:

OX2R agonist activity (3 μM, %) | SMILES
101% | CS(=O)(=O)N[C@@H]1CN(C2=NO[C@](CF)(c3ncc(F)cc3-c3c(F)cccc3F)C2)CC1(F)F [Example 109, N-[(3R)-1-{(5S)-5-[3-(2,6-difluorophenyl)-5-fluoropyridin-2-yl]-5-(fluoromethyl)-4,5-dihydro-1,2-oxazol-3-yl}-4,4-difluoropyrrolidin-3-yl]methanesulfonamide]
96% | O=S(=O)(CF)N[C@@H]1CN(C2=NO[C@](CF)(c3ncc(F)cc3-c3c(F)cccc3F)C2)CC1(F)F [Example 149, N-[(3R)-1-{(5S)-5-[3-(2,6-difluorophenyl)-5-fluoropyridin-2-yl]-5-(fluoromethyl)-4,5-dihydro-1,2-oxazol-3-yl}-4,4-difluoropyrrolidin-3-yl]-1-fluoromethanesulfonamide]
100% | CC1(c2ncc(F)cc2-c2c(F)cccc2F)CC(N2C[C@@H](NS(C)(=O)=O)C(F)(F)C2)=NO1 (stereo partly drawn) [Example 158, N-[(3R)-1-{5-[3-(2,6-difluorophenyl)-5-fluoropyridin-2-yl]-5-methyl-4,5-dihydro-1,2-oxazol-3-yl}-4,4-difluoropyrrolidin-3-yl]methanesulfonamide]
103% | O=S(=O)(CF)N[C@@H]1CN(C2=NO[C@](CF)(c3ncc(F)cc3-c3c(F)cccc3F)C2)C[C@@H]1F [Example 162, N-[(3R,4S)-1-{(5S)-5-[3-(2,6-difluorophenyl)-5-fluoropyridin-2-yl]-5-(fluoromethyl)-4,5-dihydro-1,2-oxazol-3-yl}-4-fluoropyrrolidin-3-yl]-1-fluoromethanesulfonamide]
98% | O=S(=O)(CF)N[C@@H]1CN(C2=NOC(CF)(c3ncc(F)cc3-c3c(F)cc(F)cc3F)C2)C[C@@H]1F (stereo partly drawn) [Example 163, 1-fluoro-N-[(3R,4S)-4-fluoro-1-{5-(fluoromethyl)-5-[5-fluoro-3-(2,4,6-trifluorophenyl)pyridin-2-yl]-4,5-dihydro-1,2-oxazol-3-yl}pyrrolidin-3-yl]methanesulfonamide]
98% | O=S(=O)(CF)N[C@@H]1CN(C2=NOC(c3c(F)cc(F)cc3-c3c(F)cccc3F)C2)CC1(F)F (stereo partly drawn) [Example 169, N-{(3R)-4,4-difluoro-1-[5-(2′,3,5,6′-tetrafluoro[1,1′-biphenyl]-2-yl)-4,5-dihydro-1,2-oxazol-3-yl]pyrrolidin-3-yl}-1-fluoromethanesulfonamide]
106% | Cc1cc(F)c(C2CC(N3C[C@@H](NS(=O)(=O)CF)C(F)(F)C3)=NO2)c(-c2ncc(F)cc2F)c1 (stereo partly drawn) [Example 177, N-[(3R)-1-{5-[2-(3,5-difluoropyridin-2-yl)-6-fluoro-4-methylphenyl]-4,5-dihydro-1,2-oxazol-3-yl}-4,4-difluoropyrrolidin-3-yl]-1-fluoromethanesulfonamide]
111% | Cc1cc(F)c(C2CC(N3C[C@H](F)[C@H](NS(C)(=O)=O)C3)=NO2)c(-c2ncc(F)cc2F)c1 (stereo partly drawn) [Example 178, N-[(3R,4S)-1-{5-[2-(3,5-difluoropyridin-2-yl)-6-fluoro-4-methylphenyl]-4,5-dihydro-1,2-oxazol-3-yl}-4-fluoropyrrolidin-3-yl]methanesulfonamide]

These compounds were tested on cynomolgus monkeys (assay: Evaluation of wake-promoting effects in cynomolgus monkeys (EEG, EMG, locomotor activity)). Conditions: 3 mg/kg p.o. at zeitgeber time 12, male cynomolgus monkeys, time spent in wakefulness for 4 hours after administration.
Type: in vivo, cynomolgus monkey
Description: The wake-promoting effects were evaluated by measuring the electroencephalogram (EEG), electromyogram (EMG) and locomotor activity in cynomolgus monkeys. Under isoflurane anesthesia (0.5-5%, Pfizer Japan Inc., Tokyo, Japan), male cynomolgus monkeys (2-3 years old, Hamri Co., Ltd., Ibaraki, Japan) were surgically implanted with radio-telemetry transmitters (L03-F3, Data Sciences International Inc., MN, USA). The two EEG electrodes were stereotaxically positioned at the parietal area and secured to the cranium with stainless-steel screws in contact with the dura. Bilateral EMG electrodes were implanted into the back cervical muscles.
After at least a 1-month recovery period in home cages, the monkeys were habituated to the recording chamber (an acrylic cage 60 W×55 D×75 H (cm)) located in a soundproof and electrically shielded room by the time animals sleep sufficiently in the experimental room. Cortical EEG, EMG and locomotor activity were recorded using the telemetry system (PhysioTel Digital telemetry platform, Data Sciences International Inc.). The signals were semi-automatically scored in 20-second epochs by a sleep scoring system (SleepSign, Kissei Comtec Co., Ltd., Nagano, Japan).
Test compound (3 mg/kg) suspended in 0.5% methylcellulose aqueous solution or vehicle (i.e., 0.5% methylcellulose aqueous solution) was administered orally (p.o.) to monkeys at zeitgeber time 12 in a volume of 5 mL/kg body weight with a pretest-posttest design (n=2), and then EEG, EMG and locomotor activity were recorded. The time spent in wakefulness for 4 hours after administration (% of vehicle treatment) was calculated by using SleepSign.

SMILES | Wakefulness time (% of vehicle treatment) (Mean, n = 2)
Cc1cnc([C@@H]2CC(N3C[C@@H](NS(C)(=O)=O)C(F)(F)C3)=NO2)c(-c2c(F)cc(F)cc2F)c1 [Example 11, N-[(3R)-4,4-difluoro-1-{(5S)-5-[5-methyl-3-(2,4,6-trifluorophenyl)pyridin-2-yl]-4,5-dihydro-1,2-oxazol-3-yl}pyrrolidin-3-yl]methanesulfonamide] | 638.80 % of vehicle treatment
CS(=O)(=O)N[C@@H]1CN(C2=NO[C@](CF)(c3ncc(F)cc3-c3c(F)cccc3F)C2)CC1(F)F [Example 109, N-[(3R)-1-{(5S)-5-[3-(2,6-difluorophenyl)-5-fluoropyridin-2-yl]-5-(fluoromethyl)-4,5-dihydro-1,2-oxazol-3-yl}-4,4-difluoropyrrolidin-3-yl]methanesulfonamide] | 558.37 % of vehicle treatment
O=S(=O)(CF)N[C@@H]1CN(C2=NO[C@](CF)(c3ncc(F)cc3-c3c(F)cccc3F)C2)CC1(F)F [Example 149, N-[(3R)-1-{(5S)-5-[3-(2,6-difluorophenyl)-5-fluoropyridin-2-yl]-5-(fluoromethyl)-4,5-dihydro-1,2-oxazol-3-yl}-4,4-difluoropyrrolidin-3-yl]-1-fluoromethanesulfonamide] | 282.21 % of vehicle treatment
